Results reported in US9353116B2, “Methods and compositions for kinase inhibition” (THE REGENTS OF THE UNIVERSITY OF CALIFORNIA, priority 2010, dated 2016).

Key:
T338C c-Src [1] = target: T1, T338C c-Src (Gallus gallus (Chicken), UniProt P00523, T338C); assay: Gel filtration and kinetic assay, T338C c-Src; type: biochemical; conditions: 23 μM inhibitor, 25 minutes, then PD10 desalting
Protocol: (§1) Inhibitors (final concentration 23 μM) were incubated with c-Src variants (final concentration 11.5 μM) in kinase reaction buffer (50 mM Tris pH 8, 100 mM NaCl, 1 mM DTT, 5% glycerol, 5% DMSO) for 25 minutes at room temperature. The solutions (2.6 mL total) were then passed over PD10 desalting columns (GE Healthcare) using the kinase reaction buffer for elution. Src concentrations were calculated using the extinction coefficient for c-Src (51.140 mM^−1cm^−1) {Seeliger, 2005 #100}. Kinase assays were performed as described in the experimental section at a final enzyme concentration of 10 nM.

c-Src-ES3 (T338C/V323S) = c-Src-ES3 (T338C/V323S) (Gallus gallus (Chicken), UniProt P00523, T338C/V323S); assay: In vitro kinase assay, c-Src-ES3; type: biochemical
Protocol: (§2) In vitro kinase assays for c-Src variants were performed in 50 mM Tris (pH 8.0), 10 mM MgCl2 and 1 mg/mL BSA. When obtaining kinetic parameters (kcat, Km) kinase and peptide substrate (IYGEFKKK) (SEQ ID NO:51) concentrations were 2 nM and 500 μM, respectively, while ATP concentrations ranged from 2000-0.655 μM. Addition of nonradioactive ATP supplemented with ^32P ATP (3,000 Ci/mmol, NEN) was used to initiate kinase reactions. Time points were selected such that product formation never exceeded 10%. Reactions were quenched by spotting 3 μL quantities onto phosphocellulose sheets (P81, Whatman). Afterwards, the sheets were washed 3×5 minutes in 0.5% phosphoric acid and dried. Radioactivity was measured by phosphorimaging and recorded on a Typhoon fluorescence imager (Molecular Dynamics). Data were plotted as rate (min^−1) versus ATP concentration and fitted to the Michaelis-Menten equation, v=[(kcat)[S]]/(Km+[S]), using Kaleidagraph software (Synergy) to extract kinetic parameters. When obtaining IC50 values for the inhibitors, 2% (v/v) DMSO was included in kinase reactions. In these cases ATP, peptide, and enzyme concentrations were 15 nM, 100 μM and 5 nM, respectively, while inhibitor concentrations ranged from 10,000-0.610 nM. In all cases, a ten-minute preincubation step between the kinase and the inhibitor preceded addition of ATP and a fifteen-minute reaction. The data was fitted to a sigmoidal dose-response curve using Prism 4.0c (GraphPad Software) to obtain IC50 values.

I338T v-Src = I338T v-Src (Rous sarcoma virus (strain H-19), UniProt P25020, I338T); type: cell-based
Protocol: (§3) Curr Biol 8(5):257-266. Cells were grown to 60-90% confluence in DMEM supplemented with fetal bovine serum (10%), penicillin ‘G’ (100 units/ml) and streptomycin sulfate (100 μg/ml) (PenStrep, UCSF Cell Culture Facility) prior to treatment with kinase inhibitors dissolved in DMSO (final DMSO concentration, 0.5%). Following 1 hour of incubation with inhibitors at 37° C., cells were harvested in lysis buffer (50 mM Tris (pH 7.4), 300 mM NaCl, 5 mM EDTA, 1% triton, 0.02% NaN3, 1× complete mini protease inhibitor (Roche), 1 mM PMSF, 1×PHOS-stop (Roche), 0.02 μM microcystin, 2 mM sodium orthovanadate), normalized for concentration and analyzed by Western blot for global phosphotyrosine levels (4G10, Millipore, 1:1000). Levels of β-actin (β-actin Antibody, Cell Signaling, 1:1000) and v-Src (Src 32G6 rabbit mAb, Cell Signaling, 1:1000) were ascertained by Western blot.
(§4) I338C (v-Src-ES1, SEQ ID NO:48), I338T (SEQ ID NO:49), I338G (v-Src-AS1, SEQ ID NO:50) and WT v-Src-transformed NIH-3T3 cell lines were generated. Unlike c-Src, v-Src is constitutively active and harbors an isoleucine gatekeeper. The I338T v-Src variant was generated for consistency with the in vitro c-Src studies. For each cell line, global levels of phosphotyrosine were analyzed (FIG. 7). […]

307 kinases = assay: Kinome-wide profiling (SelectScreen Kinase Profiling Service); type: biochemical; conditions: compounds at 1 μM, ATP at Km,app
Protocol: The percent inhibition results in FIG. were generated with biochemical enzymatic kinase assays using the SelectScreen® Kinase Profiling Service (Life Technologies Corporation, Madison, Wis.). Compounds were assayed at 1 μM at an ATP concentration equal to the ATP Km,app for the assay following the detailed procedures described in the SelectScreen® Customer Protocol and Assay Conditions documents located at www.invitrogen.com/kinaseprofiling.
Compounds that were profiled include, but are not limited to, 3, 4, 9, 13, and 20. […] The exocyclic amine mimics N6 of ATP and plays an important role in a hydrogen bonding interaction with the hinge region of kinases.

v-Src-ES1 (I338C) = v-Src-ES1 (I338C) (Rous sarcoma virus (strain H-19), UniProt P25020, I338C); assay: Inhibition assay with v-Src-ES1 transformed NIH-3T3 cells; type: cell-based
Protocol: as §3, §4

WT c-Src [2] = target: T2, WT c-Src (Gallus gallus (Chicken), UniProt P00523); assay: Gel filtration and kinetic assay, WT c-Src; type: biochemical; conditions: 23 μM inhibitor, 25 minutes, then PD10 desalting
Protocol: as §1

WT c-Src [3] = target: T2, WT c-Src; assay: In vitro kinase assay, WT c-Src; type: biochemical; conditions: inhibitor preincubated with Src ten minutes prior to addition of ATP; read-out: WT c-Src IC50
Protocol: as §2

T338C c-Src [4] = target: T1, T338C c-Src; assay: Full protein mass spectrometry of covalent labeling; type: binding; conditions: two equivalents of inhibitor
Protocol: Protein labeling conditions: Kinase labeling reactions were performed by incubating 30 μL quantities of c-Src variants (in 50 mM Tris pH 8, 100 mM NaCl, 1 mM DTT, 5% glycerol) with two equivalents of inhibitor in DMSO (final DMSO concentration=2.4%). The covalent labeling reaction was quenched by removing 4 μL and adding it to 31 μL of 0.1% formic acid. The sample was then analyzed by ES1-oa-TOF mass spectrometry.

c-Src-ES2 (T338C/V323A) = c-Src-ES2 (T338C/V323A) (Gallus gallus (Chicken), UniProt P00523, T338C/V323A); assay: In vitro kinase assay, c-Src-ES2; type: biochemical
Protocol: as §2

Which “inhibitory activity after gel filtration, T338C c-Src” value (T338C c-Src [1]) does the source give for `CC(C)n1nc(Cc2cccc(C(=O)CF)c2)c2c(N)ncnc21` [Compound 13, 1-(3-((4-amino-1-isopropyl-1H-pyrazolo[3,4-d]pyrimidin-3-yl)methyl)phenyl)-2-fluoroethanone] here?
The value was “retained”.

What about the IC50 (c-Src-ES3 (T338C/V323S); ES3 = T338C/V323S, read-out: c-Src variant IC50 (nM) ES3) of the same compound?
Its IC50 is 29 nM.

What about the “fold improvement in potency with V323S mutation” value (c-Src-ES3 (T338C/V323S); c-Src-ES3 relative to c-Src-ES1) of the same compound?
The value was 12 fold.

What about the “inhibition of I338T v-Src in cells (global phosphotyrosine levels)” value (I338T v-Src) of the same compound?
Its value is “neither 9 nor 13 inhibited I338T v-Src”.

And the “off-target profile in kinome-wide screen” value (307 kinases)?
The value was “clean profile”.

What about the “inhibition of v-Src-ES1 in cells (global phosphotyrosine levels)” value (v-Src-ES1 (I338C)) of the same compound?
The value was “inhibited v-Src-ES1 in a dose-dependent manner”.

What about the “inhibitory activity after gel filtration, WT c-Src” value (WT c-Src [2]) of the same compound?
Its value is “lost”.

And the IC50 (WT c-Src [3])?
Its IC50 is over 5000 nM.

What about the “covalent labeling / adduct formation by full protein mass spectrometry” value (T338C c-Src [4]) of the same compound?
The value was “not observed”.

And the IC50 (c-Src-ES2 (T338C/V323A); ES2 = T338C/V323A, read-out: c-Src variant IC50 (nM) ES2)?
Its IC50 is 67 nM.

And the “change of inhibitor potency upon second-site Val323 mutations” value (c-Src-ES2 (T338C/V323A); c-Src-ES2 and c-Src-ES3 relative to c-Src-ES1)?
Its value is “Enhanced inhibitor potency”.

And the “fold increase in potency with V323A mutation” value (c-Src-ES2 (T338C/V323A); c-Src-ES2 relative to c-Src-ES1)?
The value was 5 fold.
